Experimental data from patent publication US7815907B2, “Antibodies to insulin-like growth factor I receptor” (Amgen Fremont Inc., priority 2001, dated 2010).

Key:
[1] = system: COS7 IGF-IR; test: Species crossreactivity by immunoprecipitation/Western blot; type: binding, old world monkey; settings: immunoprecipitation, antibody 1 μg/ml
Description: To perform immunoprecipitation experiments, we plated cells in DMEM high glucose media supplemented with L-glutamine (0.29 mg/ml), 10% heat-inactivated FBS, and 500 μg/ml each of geneticin, penicillin and streptomycin to 50% confluence in T25 flasks. We then added 100 μl of an antibody of the invention in Hank's buffered saline solution (HBSS; Gibco BRL) at a concentration of 1 μg/ml. We incubated the plates for 30 minutes at 37° C. in an incubator and then stimulated the cells with IGF-I at 100 ng/ml for 10 minutes at room temperature. We lysed the cells in RIPA buffer (Harlow and Lane, supra) and immunoprecipitated IGF-IR with 2 μg of pan-specific SC-713 anti-IGF-IR antibody (Santa Cruz) plus protein A agarose beads for 1 hour at 4° C. We pelleted the beads and wash three times with PBS/T (PBS+0.1% Tween-20) and then boiled the beads in 40 μl Laemmli buffer containing 5% βME.
The samples prepared as described above were then analyzed by Western blot. We loaded 12 μl of each sample per lane on 4-10% gradient Novex™ gels run with 1×MES buffer (Novex™). Gels were run at 150V for 1 hour or at 200V for approximately 30 minutes. We then transferred the gel to a membrane in Novex™ transfer buffer with 10% methanol either overnight at 100 mA or for 1-1.5 hours at 250 mA. […]

[2] = target: T1, extracellular domain of IGF-IR (Homo sapiens, UniProt P08069); test: BIAcore affinity measurement, Protocol 2; type: binding; settings: BIAcore 3000; as Fagerstam et al.
T1 construct: Different concentrations of the extracellular domain of IGF-IR were injected on the sensorchip
Description: We performed affinity measures of purified antibodies by surface plasmon resonance using the BIAcore 3000 instrument, following the manufacturer's protocols.
BIAcore measurements were performed essentially as described by Fagerstam et al. “Detection of antigen-antibody interactions by surface plasmon resonance. Applications to epitope mapping.” J. Mol. Recog. 3: 208-214. (1990).

[3] = system: A431 tumors; test: Growth inhibition of epidermoid carcinoma cell tumors; type: in vivo, nude mice
Description: Tumors were induced in nude mice essentially as described in Example IX except that A431 cells (ATCC CRL 1555) were used. A431 cells are human epidermoid carcinoma cells that overexpress EGFR. Mice with established subcutaneous tumors of approximately 250 mm^3 were treated on days 1, 8, 15, 22 and 29 with 500 μg 2.13.2 antibody (i.p.) or were treated once daily for 27 days with 10 mg/kg CP-358,774 given orally (p.o.), either as single agents or in combination, as described in Example IX. CP-358,774 is described in U.S. Pat. No. 5,747,498 and Moyer et al., Cancer Research 57: 4838-4848 (1997), herein incorporated by reference.

Kd [2]: 1.53 nM
Substance: 2.13.2: human IgG2κ monoclonal antibody specific for IGF-IR from hybridoma 2.13.2 (ATCC PTA-2788)
binding to COS7 IGF-IR [1]: able to bind
effect on effectiveness of CP-358,774 ([3]; 500 μg i.p. on days 1, 8, 15, 22 and 29 with 10 mg/kg CP-358,774 p.o. daily for 27 days): enhances the effectiveness of CP-358,774
A431 tumor growth ([3]; multiple doses, alone or in combination with CP-358,774 (FIG. 16)): inhibit A431 tumor growth
